The text below walks through data of US20140356393A1, “COMPOSITION FOR TREATMENT OR PREVENTION OF HYPERLIPIDEMIA, CONTAINING WATER EXTRACTS OF LAETIPORUS SULPHUREUS” (POSTECH ACADEMY-INDUSTRY FOUNDATION, priority 2011, published 2014).

For test [1], the system named is lipid absorption. The test can be described thus: Amount of triglyceride (lipid) absorption from the digestive tract into blood. It is filed as in vivo. To be noted: male Balb/c mouse, oral 14C-triolein, plasma radioactivity 6 hours after administration, relative to control = 1; FIG. 4. As for the experimental part: Triolein (Amersham, 100 μCi/mL) radiolabeled with ^14C was mixed with 1% (w/v) sodium carboxylmethyl cellulose (CMC-Na) and 1% (v/v) Tween 80, and then 0.1 mL of the mixture was forcibly administered into each mouse through an oral zonde so that 1 μCi could be delivered to each mouse. Here, the mouse in the control group (an 8-week old male Balb/c with body weight of 25 g) was treated with 400 μg of Orlistat (20 mg/kg), which is used as an obesity treatment, and the mouse in the experimental group (an 8-week old male Balb/c with body weight of 25 g) was treated with 0.5 mL of the water extract (50 mg/mL) of Laetiporus sulphureus prepared in the Example after concentrating it into 0.1 mL. Six hours after the administration, blood samples were collected from the mice, and plasma was obtained by centrifuging the blood at 40° C. at the rate of 14000 rpm, and the radioactive dose was measured by a liquid scintillator (Beta counter, Beckman LS1801). The control group was not treated with anything. The amount of lipid absorption was determined as a relative value by dividing the radioactive dose of each group into the radioactive dose of the control group, in which the radioactive dose of the control group was set at ‘1’.

Test [2] has as its system cholesterol absorption. Briefly: Amount of cholesterol absorption from the digestive tract into blood. In kind it is in vivo. The note with it: male Balb/c mouse, oral 3H-cholesterol oleate, plasma radioactivity 6 hours after administration, relative to control = 1; FIG. 3. As for the experimental part:
Cholesterol oleate (Amersham, 100 μCi/mL) radiolabeled with ^3H was mixed with 1% (w/v) sodium carboxylmethyl cellulose (CMC-Na), 1% (v/v) Tween 80, and a non-labeled cholesterol oleate, and then 0.1 mL of the mixture was forcibly administered into each mouse through an oral zonde so that 1 μCi could be delivered to each mouse. Here, the mouse in the control group (an 8-week old male Balb/c with body weight of 25 g) was treated with 400 μg of Orlistat (20 mg/kg), which has an inhibitory effect against cholesterol absorption, and the mouse in the experimental group (an 8-week old male Balb/c with body weight of 25 g) was treated with […] of Laetiporus sulphureus prepared in the Example after concentrating it into 0.1 mL. Six hours after the administration, blood samples were collected from the mice, and plasma was obtained by centrifuging the blood at 40° C. at the rate of 14000 rpm, and the radioactive dose was measured by a liquid scintillator (Beta counter, Beckman LS1801). The Control group was not treated with anything that may inhibit the absorption of cholesterol. The amount of cholesterol absorption was determined as a relative value by dividing the radioactive dose of each group into the radioactive dose of the control group, in which the radioactive dose of the control group was set at ‘1’.

Take `CCCCCCCCCCC[C@@H](C[C@@H]1OC(=O)[C@H]1CCCCCC)OC(=O)[C@H](CC(C)C)NC=O` [Orlistat]: the “inhibitory effect upon lipid absorption” value in test [1] is “significant inhibitory effect”. Also, in test [2], the “inhibitory effect upon cholesterol absorption” value was “significant inhibitory effect”.
